# Data published in patent US20220202939A1, “PREPARATION FOR IMPROVING ACTIVITY AND/OR THERMAL STABILITY OF SUPEROXIDE DISMUTASE, AND APPLICATION THEREOF” (CHINA AGRICULTURAL UNIVERSITY, priority 2020, published 2022).
# System: superoxide dismutase (SOD)
# Experiment: Influence of small-molecule substances on SOD enzyme activity and thermal stability at 80° C.
# Assay type: biochemical
# Settings: experimental group 1: 100 μL SOD solution (1×10^−4 mol/L) + 100 μL substance solution (1×10^−3 mol/L); water bath 80° C., 4 hours, enzyme activity every 20 minutes; vs SOD blank control; FIG. 1
# Procedure: SOD solution: Mr(SOD)=37.8 kDa, 37.8 mg of SOD was weighed and dissolved in 10 mL of phosphate buffer to obtain a stock solution of CSOD=1×10^−4 mol/L.
# Experimental group 1: 100 μL of the SOD solution was taken out and added to each of […] 10 mL centrifuge tubes, and then 100 μL of the solution of each of the vitamin C, the vitamin p, the catechin, the quercetin, the myricetin, the kaempherol, the ellagic acid, and the ferulic acid was added to each of the […] centrifuge tubes. Another 100 μL of the SOD solution was taken out as blank control. The centrifuge tubes and the blank control were placed in a water bath at 80° C., incubated for 4 hours, and detected for enzyme activity every 20 minutes. […]
Compound,activity of the SOD,thermal stability of the SOD
"Cc1ncc(C[n+]2csc(CCO)c2C)c(N)n1 [Vb1, vitamin B1, reference compound]",fails to improve the activity and thermal stability of SOD enzymes,fails to improve the activity and thermal stability of SOD enzymes
O=c1oc2c(O)c(O)cc3c(=O)oc4c(O)c(O)cc1c4c23 [ellagic acid],improve the activity of the SOD,significantly improve the thermal stability of the SOD
COc1cc(/C=C/C(=O)O)ccc1O [ferulic acid],improve the activity of the SOD,significantly improve the thermal stability of the SOD
O=c1c(O)c(-c2ccc(O)cc2)oc2cc(O)cc(O)c12 [kaempherol],improve the activity of the SOD,significantly improve the thermal stability of the SOD
catechin,improve the activity of the SOD,significantly improve the thermal stability of the SOD

# More lines, main results first:
activity of the SOD,Compound,thermal stability of the SOD
improve the activity of the SOD,O=c1c(O)c(-c2cc(O)c(O)c(O)c2)oc2cc(O)cc(O)c12 [myricetin],significantly improve the thermal stability of the SOD
improve the activity of the SOD,O=c1c(O)c(-c2ccc(O)c(O)c2)oc2cc(O)cc(O)c12 [quercetin],significantly improve the thermal stability of the SOD
improve the activity of the SOD,O=C1O[C@H]([C@@H](O)CO)C(O)=C1O [vitamin C],significantly improve the thermal stability of the SOD
improve the activity of the SOD,vitamin P,significantly improve the thermal stability of the SOD
